{"source": "patent US7375103B2", "about": "“Optically active pyridine derivative and a medicament containing the same” (Bayer HealthCare AG, priority 2002, dated 2008)", "key": {"[1]": {"test": "Ames-Test Screening"}, "[2]": {"test": "cellular assays (not further specified)", "assay_type": "cell-based", "procedure": "[The Measurement of RANTES Production in Response to TNF-α from A549 cells]\n(1) Preparation of A549 Cells\n• The A549 human lung epithelium cell line (ATCC […]) was maintained in Dulbecco's modified Eagle's medium (D-MEM, Nikken Biomedical Institute) supplemented with 10% FCS (Gibco), 100 U/ml penicillin, 100 μg/ml streptomycin, and 2 mM glutamine (culture medium). Forty thousand (4×10^4) cells (80 μl/well) were seeded in each well of 96 well flat-bottom tissue culture plate (Falcon #3072). The plate was allowed to stand for 2 hrs, thus the cells were adhered to the bottom of each well. To the each well was added 10 μl vehicle (1% DMSO), serial dilutions of test compounds in 1% DMSO, or 5 nM Dexamethasone in 1% DMSO as a reference. The mixture (90 μl/well) was incubated for 1 hr at 37° C. After 1 hr, 1 μg/ml TNF-α (10 μl) in culture medium was added to the mixture to obtain 100 μl of reaction mixture. The reaction mixture was cultured for 24 hrs to stimulate the cells with 100 ng/ml TNF-α. […] (2) Measurement of RANTES Production • Then the concentration of RANTES released from the cells in the supernatants of each well was determined using a quantitative sandwich enzyme immunoassay technique. […] Fluorescent intensity was measured using a DELFIA fluorimeter (Wallac). Excitation was performed at 340 nm and emission was measured at 615 nm. […]"}, "[3]": {"tested_on": "LPS-induced TNF-α production", "test": "Rat LPS-induced TNF-α production", "assay_type": "in vivo, Wistar female rats", "settings": "in Rat", "procedure": "[Rat LPS-Induced TNF-α Production]\nSeven weeks old Wistar female rats were used. One mg of LPS (lypopolysaccharide) dissolved in phosphate buffer saline (pH 7.4) was administered intraperitoneally (i.p.) to rats. Compounds were given orally 60 minutes prior to the LPS injection. Under anesthesia with pentobarbital (80 mg/kg, i.p.), blood was collected from the posterior venous cavity of the rats 120 minutes post-LPS injection and added into 96-well plate containing 2% EDTA solution. The plasma was separated by centrifugation at 1800 rpm for 10 minutes at 4° C. and then diluted with four times volumes of phosphate buffer saline (H 7.4) containing 1% bovine serum albumin. TNF-α concentration in the sample was determined using an ELISA kit (Endogen, Boston, Mass.).\nThe mean TNF-α level in 7-8 rats from each group was determined and the percent reduction in TNF-α levels was calculated."}}}
{"smiles": "O=C1Nc2nc(-c3c(O)cccc3OCC3CC3)cc([C@@H]3CCCNC3)c2CO1", "note": "[the compound of the present invention, (−)-7-[2-(cyclopropylmethoxy)-6-hydroxy-phenyl]-5-[(3S)-3-piperidinyl]-1,4-hydro-2H-pyrido [2,3-d][1,3]oxazin-2-one]", "values": [{"measurement": "mutagenicity according to the Ames-Test Screening", "setting": "[1]", "value": "non-mutagenic"}, {"measurement": "cellular activity compared with corresponding racemic modification", "setting": "[2]", "value": "twice as strong as corresponding racemic modification"}, {"measurement": "anti-inflammatory activity compared with corresponding racemic modification", "setting": "[3]", "value": "twice as strong as corresponding racemic modification"}]}
